Where two headings read alike, the source gives them in different places.

One experiment has as its target human DGKζ (Homo sapiens (Human), UniProt Q13574). Nature of the experiment: DGKζ LIPGLO assay (extruded liposome substrate, ADP-Glo luminescence). It counts as biochemical.
The target in experiment [1] is T1, human DGKα (Homo sapiens (Human), UniProt P23743). Nature of the experiment: DGKα LIPGLO assay (extruded liposome substrate, ADP-Glo luminescence). It counts as biochemical. The following applies: liposome assay; read-out: DGK alpha LIPGLO IC50. A general note: In ADP-Glo the light output rises with the ADP produced.
In experiment [2] the test system is human venous whole blood (IFN-γ). In words: Human whole blood IFN-γ assay. It is filed as cell-based. On the procedure:
Human venous whole blood (22.5 μL per well), obtained from healthy donors, was pre-treated with compounds for one hour at 37° C. in a humidified 95% air/5% CO2 incubator. The blood was stimulated with 2.5 μL anti-human CD3 and anti-CD28 mAb at a final concentration of 1 μg/mL each for 24 hours at 37° C. IFN-γ in the supernatants was measured using AlphLISA kit (Cat #AL217).

Experiment [3] deals with T1, human DGKα. Nature of the experiment: DGKα ADPGLO assay (detergent/lipid micelle substrate). It is filed as biochemical. How it is done:
DGK Alpha ADPGLO (Truncated) IC50 (uM)
The detergent/lipid micelle was prepared by combining 15 g phosphatidylserine (Avanti 840035P) and 1 g diacylglycerol (8008110) and dissolving into 150 mL chloroform in a 2 L round bottom flask. Chloroform was removed under high vacuum by rotary evaporation. […] The lipid/detergent solution was split into 5 mL aliquots and stored at −80° C.

Setting [4] is: liposome assay, read-out: DGK zeta LIPGLO IC50.
[5] abbreviates: Homo sapiens, whole blood, normalized to 3 μM reference compound as 100% activation, read-out: IFN-γ Whole Blood Normalized EC50.
The mark [6] stands for this setting: truncated DGK alpha, read-out: DGK alpha ADPGLO (Truncated) IC50.
Where [7] appears, read: whole blood, normalized to 3 μM reference compound as 100% activation, read-out: IFN-γ Whole Blood Normalized EC50.

Sequence of human DGKζ (Q13574 other isoform, or with tags, fused parts or gaps): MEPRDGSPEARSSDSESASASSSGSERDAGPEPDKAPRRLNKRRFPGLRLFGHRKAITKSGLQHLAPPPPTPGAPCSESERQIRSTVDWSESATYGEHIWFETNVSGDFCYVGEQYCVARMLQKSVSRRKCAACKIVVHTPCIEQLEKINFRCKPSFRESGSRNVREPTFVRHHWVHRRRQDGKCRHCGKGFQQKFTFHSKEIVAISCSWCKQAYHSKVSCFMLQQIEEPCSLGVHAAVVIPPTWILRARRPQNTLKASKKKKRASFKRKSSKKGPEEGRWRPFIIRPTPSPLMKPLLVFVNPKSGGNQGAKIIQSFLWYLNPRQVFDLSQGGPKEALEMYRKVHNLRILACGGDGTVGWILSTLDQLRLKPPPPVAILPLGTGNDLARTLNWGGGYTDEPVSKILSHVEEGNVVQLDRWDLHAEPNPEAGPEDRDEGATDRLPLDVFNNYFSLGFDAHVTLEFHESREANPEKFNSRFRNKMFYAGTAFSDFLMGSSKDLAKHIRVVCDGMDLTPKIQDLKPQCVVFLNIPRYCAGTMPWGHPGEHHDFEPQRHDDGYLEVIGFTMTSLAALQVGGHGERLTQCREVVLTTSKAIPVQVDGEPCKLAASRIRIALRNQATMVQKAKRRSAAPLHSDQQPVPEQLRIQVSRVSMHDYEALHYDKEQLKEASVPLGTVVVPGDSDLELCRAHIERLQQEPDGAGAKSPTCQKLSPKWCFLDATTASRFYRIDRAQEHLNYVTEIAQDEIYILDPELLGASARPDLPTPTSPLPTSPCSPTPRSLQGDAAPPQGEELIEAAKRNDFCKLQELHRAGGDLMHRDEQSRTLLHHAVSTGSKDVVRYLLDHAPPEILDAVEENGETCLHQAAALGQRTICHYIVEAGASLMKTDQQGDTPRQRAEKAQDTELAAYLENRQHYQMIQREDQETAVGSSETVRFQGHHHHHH
T1 sequence (P23743 whole entry, looked up): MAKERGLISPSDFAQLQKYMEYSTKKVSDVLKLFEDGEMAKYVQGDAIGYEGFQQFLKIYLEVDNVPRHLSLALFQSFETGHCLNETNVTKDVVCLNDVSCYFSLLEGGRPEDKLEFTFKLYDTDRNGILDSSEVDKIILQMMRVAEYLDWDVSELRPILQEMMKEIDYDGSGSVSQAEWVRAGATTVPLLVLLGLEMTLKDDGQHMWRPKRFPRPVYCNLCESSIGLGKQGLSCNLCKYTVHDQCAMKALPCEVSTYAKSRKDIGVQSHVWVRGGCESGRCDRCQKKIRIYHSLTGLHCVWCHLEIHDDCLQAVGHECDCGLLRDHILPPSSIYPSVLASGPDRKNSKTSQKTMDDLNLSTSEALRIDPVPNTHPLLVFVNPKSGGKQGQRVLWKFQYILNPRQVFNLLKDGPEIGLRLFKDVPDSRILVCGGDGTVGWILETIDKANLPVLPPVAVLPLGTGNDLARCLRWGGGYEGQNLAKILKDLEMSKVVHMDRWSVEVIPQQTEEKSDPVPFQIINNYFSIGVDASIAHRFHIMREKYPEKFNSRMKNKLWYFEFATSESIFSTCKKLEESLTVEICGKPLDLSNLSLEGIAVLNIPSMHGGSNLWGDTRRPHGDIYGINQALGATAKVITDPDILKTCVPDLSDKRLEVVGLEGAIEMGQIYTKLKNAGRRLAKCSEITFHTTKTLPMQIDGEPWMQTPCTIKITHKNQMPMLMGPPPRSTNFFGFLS

As a reminder, the IC50 is the concentration needed to halve the response being measured. As to `CCC(c1ccc2c(c1)OC(F)(F)O2)N1C[C@H](C)N(c2nc(=O)n(C)c3ccc(C#N)nc23)C[C@H]1CC` (single isomer, unassigned) [Example 80], the values for the IC50 at human DGKζ (setting [4]) and at human DGKα [1] were 1180 nM and 2160 nM, respectively.
With `CCC(c1ccc(OC(F)F)cc1)N1C[C@H](C)N(c2nc(=O)n(C)c3ccc(C#N)nc23)C[C@H]1CC` (single isomer, unassigned) [Example 77], the IC50 stood at 14 nM on human DGKζ (setting [4]) and 36 nM at human DGKα [1].
`CC[C@@H]1CN(c2nc(=O)n(C)c3ccc(C#N)nc23)[C@@H](C)CN1C(c1ccc(F)cc1)c1nc(C2CC2)cs1` (single isomer, unassigned) [Example 50]: the IC50 on human DGKζ (setting [4]) was found to be 37 nM; at human DGKα [1], 110 nM.
For the compound `CC[C@H]1CN(C(c2ccc(F)cc2)c2cccc(C(F)(F)F)n2)[C@H](C)CN1c1nc(=O)n(C)c2ccc(C#N)nc12` (stereo partly drawn) [Example 121, 4-((2S,5R)-2-ethyl-4-((4-fluorophenyl)(6-(trifluoromethyl)pyridin-2-yl)methyl)-5-methylpiperazin-1-yl)-1-methyl-2-oxo-1,2-dihydropyrido[3,2-d]pyrimidine-6-carbonitrile], the results for the IC50 at human DGKζ (setting [4]) and on human DGKα [1] were 1650 nM and 1940 nM, respectively.
Regarding `CC[C@H]1CN(C(C)c2ccc(OC(F)(F)F)cc2)[C@H](CC)CN1c1nc(=O)n(C)c2ccc(C#N)nc12` (single isomer, unassigned) [Example 9], the results for the IC50 at human DGKζ (setting [4]) and at human DGKα [1] were 48 nM and 7 nM, respectively.
The like results for `CC[C@H]1CN(C(C)c2ccc(C(F)(F)F)cc2F)[C@H](C)CN1c1nc(=O)n(C)c2ccc(C#N)nc12` (stereo partly drawn) [Example 118, 4-((2S,5R)-2-ethyl-4-(1-(2-fluoro-4-(trifluoromethyl)phenyl)ethyl)-5-methylpiperazin-1-yl)-1-methyl-2-oxo-1,2-dihydropyrido[3,2-d]pyrimidine-6-carbonitrile] were, in that order, 16 nM and 95 nM.
Regarding `CC[C@H]1CN(C(C)c2ccc(C(F)(F)F)cc2F)[C@H](C)CN1c1nc(=O)n(C)c2ccc(C#N)nc12` (stereo partly drawn) [Example 119, 4-((2S,5R)-2-ethyl-4-(1-(2-fluoro-4-(trifluoromethyl)phenyl)ethyl)-5-methylpiperazin-1-yl)-1-methyl-2-oxo-1,2-dihydropyrido[3,2-d]pyrimidine-6-carbonitrile], the results for the IC50 on human DGKζ (setting [4]) and on human DGKα [1] were 730 nM and 650 nM, respectively.
As to `CC[C@H]1CN(C(C)c2ccc(OC)cc2)[C@H](CC)CN1c1nc(=O)n(C)c2ccc(C#N)nc12` (single isomer, unassigned) [Example 16], the values for the 50% inhibitory concentration (IC50) at human DGKζ (setting [4]) and on human DGKα [1] were 37 nM and 45 nM, respectively.
For `CC[C@@H]1CN(c2nc(=O)n(C)c3ccc(C#N)nc23)[C@@H](C)CN1C(C)c1ccc(OCC2CC2)cc1` (single isomer, unassigned) [Example 67], the values for the IC50 on human DGKζ (setting [4]) and at human DGKα [1] were 33 nM and 210 nM, respectively.
The like results for `CC[C@H]1CN(C(C)c2ccc(OC(C)C)cc2)[C@H](CC)CN1c1nc(=O)n(C)c2ccc(C#N)nc12` (single isomer, unassigned) [Example 18] were, in that order, 25 nM and 30 nM.
The like results for `CC(c1ccc(F)cc1)N1C[C@H](C)N(c2nc(=O)n(C)c3ccc(C#N)nc23)C[C@H]1C` (single isomer, unassigned) [Example 128] were, in that order, 110 nM and 26 nM.
Regarding `CC(c1ccc(OC(F)F)cc1)N1C[C@H](C)N(c2nc(=O)n(C)c3ccc(C#N)nc23)C[C@H]1C` (single isomer, unassigned) [Example 156], the IC50 on human DGKζ (setting [4]) worked out at 120 nM; at human DGKα [1], 10 nM.
On to `CC(c1cc(F)c(F)c(F)c1)N1C[C@H](C)N(c2nc(=O)n(C)c3ccc(C#N)nc23)C[C@H]1C` (single isomer, unassigned) [Example 138], for which the IC50 at human DGKα [1] turned out to be 2410 nM.
Broadly, the EC50 is the concentration giving half of the maximal effect. For the compound `CCC(c1ccc(C2CC2)cc1)N1C[C@H](CC)N(c2nc(=O)n(C)c3ccc(C#N)nc23)C[C@H]1CC` (stereo partly drawn) [Example 201, 4-((2S,5R)-4-(1-(4-cyclopropylphenyl)propyl)-2,5-diethylpiperazin-1-yl)-1-methyl-2-oxo-1,2-dihydropyrido[3,2-d]pyrimidine-6-carbonitrile], the IC50 at human DGKζ (setting [4]) amounted to 900 nM; at human DGKα [3] (setting [6]) it was 160 nM. The EC50 in experiment [2] (setting [5]) was 230 nM.
On to `CCC(c1ccc(OC(F)F)cc1F)N1C[C@H](CC)N(c2nc(=O)n(C)c3ccc(C#N)nc23)C[C@H]1CC` (stereo partly drawn) [Example 233, 4-((2S,5R)-4-(1-(4-(difluoromethoxy)-2-fluorophenyl)propyl)-2,5-diethylpiperazin-1-yl)-1-methyl-2-oxo-1,2-dihydropyrido[3,2-d]pyrimidine-6-carbonitrile], for which the IC50 at human DGKζ (setting [4]) came out at 950 nM; at human DGKα [3] (setting [6]) it was 170 nM. Moreover, the EC50 in experiment [2] (setting [7]) was 2770 nM.
With `CC[C@H]1CN(C(C)c2ccc(CN3CCC(OC)CC3)cc2)[C@H](CC)CN1c1nc(=O)n(C)c2ccc(C#N)nc12` (single isomer, unassigned) [Example 274], the half-inhibitory concentration (IC50) at human DGKζ (setting [4]) amounted to 174000 nM; at human DGKα [3] (setting [6]), 16000 nM. For the same compound, the concentration giving a half-maximal response (EC50) in experiment [2] (setting [7]) was 5330 nM.
Consider `CCC(c1ccc(C(F)(F)F)nc1)N1C[C@H](CC)N(c2nc(=O)n(C)c3ccc(C#N)nc23)C[C@H]1CC` (stereo partly drawn) [Example 225, 4-((2S,5R)-2,5-diethyl-4-(1-(6-(trifluoromethyl)pyridin-3-yl)propyl)piperazin-1-yl)-1-methyl-2-oxo-1,2-dihydropyrido[3,2-d]pyrimidine-6-carbonitrile], for which the IC50 on human DGKζ (setting [4]) was determined as 4130 nM; at human DGKα [3] (setting [6]), 460 nM. The EC50 in experiment [2] (setting [7]) came out at 610 nM.
In the case of `CC[C@@H]1CN(c2nc(=O)n(C)c3ccc(C#N)nc23)[C@@H](CC)CN1Cc1ccc(C(F)(F)F)cc1` [Example 205, 4-((2S,5R)-2,5-diethyl-4-(4-(trifluoromethyl)benzyl)piperazin-1-yl)-1-methyl-2-oxo-1,2-dihydropyrido[3,2-d] pyrimidine-6-carbonitrile], the half-inhibitory concentration (IC50) on human DGKζ (setting [4]) stood at 3740 nM; at human DGKα [3] (setting [6]), 61 nM. Besides, in experiment [2] (setting [5]), the EC50 is 830 nM.
As for `CC[C@H]1CN(C(C)c2ccc(C(=O)OC)cc2)[C@H](CC)CN1c1nc(=O)n(C)c2ccc(C#N)nc12` (stereo partly drawn) [Example 265, methyl 4-(1-((2R,5S)-4-(6-cyano-1-methyl-2-oxo-1,2-dihydropyrido[3,2-d]pyrimidin-4-yl)-2,5-diethylpiperazin-1-yl)ethyl)benzoate], the half-inhibitory concentration (IC50) on human DGKζ (setting [4]) was determined as 370 nM; on human DGKα [3] (setting [6]) it was 790 nM. Further, the EC50 in experiment [2] (setting [7]) was 1590 nM.
With `CC[C@H]1CN(C(C)c2nc(C3CC3)no2)[C@H](CC)CN1c1nc(=O)n(C)c2ccc(C#N)nc12` (stereo partly drawn) [Example 362, 4-((2S,5R)-4-(1-(3-cyclopropyl-1,2,4-oxadiazol-5-yl)ethyl)-2,5-diethylpiperazin-1-yl)-1-methyl-2-oxo-1,2-dihydropyrido[3,2-d]pyrimidine-6-carbonitrile], the IC50 at human DGKζ (liposome (LIPGLO) assay, read-out: DGK zeta (liposome assay) IC50) was 590 nM; on human DGKα [3] (ADPGLO assay, read-out: DGK alpha ADPGLO IC50) it was 61 nM. Further, in experiment [2] (human whole blood, anti-CD3 plus anti-CD28 stimulation, 24 hours, read-out: IFN-γ Whole Blood EC50), the EC50 came out at 3090 nM.
As for `CCC(c1ccc(OC(F)F)cc1)N1C[C@H](CC)N(c2nc(=O)n(C)c3ccc(C#N)nc23)C[C@H]1CC` (stereo partly drawn) [Example 223, 4-((2S,5R)-4-(1-(4-(difluoromethoxy)phenyl)propyl)-2,5-diethylpiperazin-1-yl)-1-methyl-2-oxo-1,2-dihydropyrido[3,2-d]pyrimidine-6-carbonitrile], the figures for the IC50 at human DGKζ (setting [4]) and on human DGKα [3] (setting [6]) were 2080 nM and 130 nM, respectively. Moreover, the EC50 in experiment [2] (setting [5]) worked out at 900 nM.
Turning to `CC[C@H]1CN(C(C)c2ccc(C3CC3)nc2)[C@H](CC)CN1c1nc(=O)n(C)c2ccc(C#N)nc12` (stereo partly drawn) [Example 192, 4-((2 S,5R)-4-(1-(6-cyclopropylpyridin-3-yl)ethyl)-2,5-diethylpiperazin-1-yl)-1-methyl-2-oxo-1,2-dihydropyrido[3,2-d]pyrimidine-6-carbonitrile], the values for the IC50 on human DGKζ (setting [4]) and at human DGKα [3] (setting [6]) were 52 nM and 61 nM, respectively. In experiment [2] (setting [7]), the concentration giving a half-maximal response (EC50) was 110 nM.
On to `CCC(c1ccc(CN2CCOCC2)cc1)N1C[C@H](CC)N(c2nc(=O)n(C)c3ccc(C#N)nc23)C[C@H]1CC` (stereo partly drawn) [Example 268, 4-((2S,5R)-2,5-diethyl-4-(1-(4-(morpholinomethyl)phenyl)propyl)piperazin-1-yl)-1-methyl-2-oxo-1,2-dihydropyrido[3,2-d]pyrimidine-6-carbonitrile], for which the IC50 on human DGKζ (setting [4]) came to 4060 nM; on human DGKα [3] (setting [6]), 340 nM. Further, the EC50 in experiment [2] (setting [7]) is 1000 nM.
For `CC[C@H]1CN(C(c2ccc(F)cc2)c2csc(C(F)(F)F)n2)[C@H](CC)CN1c1nc(=O)n(C)c2ccc(C#N)nc12` (stereo partly drawn) [Example 211, 4-((2S,5R)-2,5-diethyl-4((4-fluorophenyl)(2-(trifluoromethyl)thiazol-4-yl)methyl)piperazin-1-yl)-1-methyl-2-oxo-1,2-dihydropyrido[3,2-d]pyrimidine-6-carbonitrile], the IC50 at human DGKζ (setting [4]) amounted to 100 nM; at human DGKα [3] (setting [6]) it was 46 nM. Besides, in experiment [2] (setting [7]), the EC50 is 18 nM.
For `[2H]C([2H])([2H])Oc1ccc(C(CC)N2C[C@H](CC)N(c3nc(=O)n(C)c4ccc(C#N)nc34)C[C@H]2CC)cc1` (single isomer, unassigned) [Example 208], the IC50 at human DGKζ (setting [4]) amounted to 78 nM; at human DGKα [3] (setting [6]), 25 nM. Also, the EC50 in experiment [2] (setting [7]) turned out to be 17 nM.

The values above are taken from patent publication US11584747B2, “Substituted pyridopyrimidinonyl compounds useful as T cell activators” (BRISTOL-MYERS SQUIBB COMPANY, priority 2019, dated 2023).
